# ChEMBL document CHEMBL5143590, “Dihydropyrimidinone imidazoles as unique structural antibacterial agents for drug-resistant gram-negative pathogens” (Eur J Med Chem, 2022)
# Legend:
# Type in all cases: functional
# Pseudomonas aeruginosa [1] = assay: Antibacterial activity against Pseudomonas aeruginosa 27853 assessed as inhibition of bacterial growth by two fold serial dilution method
# Escherichia coli [2] = assay: Antibacterial activity against Escherichia coli assessed as inhibition of bacterial growth by two fold serial dilution method
# Klebsiella pneumoniae = assay: Antibacterial activity against Klebsiella pneumoniae assessed as inhibition of bacterial growth by two fold serial dilution method
# Escherichia coli [3] = assay: Antibacterial activity against Escherichia coli 25922 assessed as inhibition of bacterial growth by two fold serial dilution method
# Acinetobacter baumannii = assay: Antibacterial activity against Acinetobacter baumannii assessed as inhibition of bacterial growth by two fold serial dilution method
# Pseudomonas aeruginosa [4] = assay: Antibacterial activity against Pseudomonas aeruginosa assessed as inhibition of bacterial growth by two fold serial dilution method
# Staphylococcus aureus [5] = assay: Antibacterial activity against Staphylococcus aureus 29213 assessed as inhibition of bacterial growth by two fold serial dilution method
# Staphylococcus aureus [6] = assay: Antibacterial activity against Staphylococcus aureus assessed as inhibition of bacterial growth by two fold serial dilution method
# Enterococcus faecalis = assay: Antibacterial activity against Enterococcus faecalis assessed as inhibition of bacterial growth by two fold serial dilution method
# Staphylococcus aureus [7] = assay: Antibacterial activity against Staphylococcus aureus 25923 assessed as inhibition of bacterial growth by two fold serial dilution method
# Staphylococcus aureus [8] = assay: Antibacterial activity against methicillin-resistant Staphylococcus aureus N315 assessed as inhibition of bacterial growth by two fold serial dilution method
# Candida albicans = assay: Antibacterial activity against Candida albicans 90023 assessed as inhibition of bacterial growth
Compound,MIC (Pseudomonas aeruginosa [1]),MIC (Escherichia coli [2]),MIC (Klebsiella pneumoniae),MIC (Escherichia coli [3]),MIC (Acinetobacter baumannii),MIC (Pseudomonas aeruginosa [4]),MIC (Staphylococcus aureus [5]),MIC (Staphylococcus aureus [6]),MIC (Enterococcus faecalis),MIC (Staphylococcus aureus [7]),MIC (Staphylococcus aureus [8]),MIC (Candida albicans)
CCCCc1nc(Cl)c(C2NC(=O)NC(C)=C2C(=O)OCC)n1S(=O)(=O)c1cccc(Cl)c1 (configuration not stated),64 µg/mL,64 µg/mL,64 µg/mL,32 µg/mL,128 µg/mL,128 µg/mL,64 µg/mL,64 µg/mL,32 µg/mL,32 µg/mL,16 µg/mL,
CCCCc1nc(Cl)c(C2NC(=O)NC(C)=C2C(=O)OCC)n1C (configuration not stated),256 µg/mL,128 µg/mL,128 µg/mL,64 µg/mL,64 µg/mL,64 µg/mL,64 µg/mL,32 µg/mL,128 µg/mL,256 µg/mL,64 µg/mL,
CCCCc1nc(Cl)c(C2NC(=O)NC(CN(c3nnc(C)s3)S(=O)(=O)c3ccc(N)cc3)=C2C(=O)OCC)[nH]1 (configuration not stated),64 µg/mL,128 µg/mL,64 µg/mL,128 µg/mL,128 µg/mL,64 µg/mL,128 µg/mL,128 µg/mL,8 µg/mL,256 µg/mL,64 µg/mL,
CCCCc1nc(Cl)c(C2NC(=O)NC(C)=C2C(=O)OCC)n1Cc1ccc(C)cc1 (configuration not stated),64 µg/mL,32 µg/mL,128 µg/mL,32 µg/mL,64 µg/mL,128 µg/mL,64 µg/mL,64 µg/mL,64 µg/mL,64 µg/mL,128 µg/mL,
O=c1nc(N(Cc2ccc(Cl)c(Cl)c2)CC(O)(Cn2cncn2)c2ccc(F)cc2F)c(F)c[nH]1 (configuration not stated),,,,,,,,,,,,8 µM
NC1CCN(c2c(F)cc3c(=O)c(C(=O)O)cn(C4CC4)c3c2Cl)C1 (configuration not stated) [CLINAFLOXACIN],1 µg/mL,0.5 µg/mL,1 µg/mL,1 µg/mL,2 µg/mL,1 µg/mL,0.5 µg/mL,0.5 µg/mL,0.5 µg/mL,0.5 µg/mL,1 µg/mL,
CCCCc1nc(Cl)c(C2NC(=O)NC(C)=C2C(=O)OCC)n1Cc1ccc(F)cc1 (configuration not stated),32 µg/mL,16 µg/mL,16 µg/mL,16 µg/mL,32 µg/mL,32 µg/mL,32 µg/mL,16 µg/mL,32 µg/mL,32 µg/mL,16 µg/mL,
CCCCc1nc(Cl)c(C2NC(=O)NC(CNS(=O)(=O)c3ccc(N)cc3)=C2C(=O)OCC)[nH]1 (configuration not stated),256 µg/mL,256 µg/mL,256 µg/mL,256 µg/mL,128 µg/mL,256 µg/mL,256 µg/mL,128 µg/mL,256 µg/mL,256 µg/mL,256 µg/mL,
CCCCc1nc(Cl)c(C2NC(=O)NC(C)=C2C(=O)OCC)n1S(=O)(=O)c1ccc(C(F)(F)F)cc1 (configuration not stated),64 µg/mL,32 µg/mL,64 µg/mL,64 µg/mL,16 µg/mL,32 µg/mL,8 µg/mL,64 µg/mL,16 µg/mL,32 µg/mL,8 µg/mL,
CCCCc1nc(Cl)c(C2NC(=O)NC(C)=C2C(=O)OCC)n1S(=O)(=O)c1ccc(F)cc1 (configuration not stated),64 µg/mL,32 µg/mL,128 µg/mL,32 µg/mL,64 µg/mL,32 µg/mL,32 µg/mL,64 µg/mL,64 µg/mL,64 µg/mL,16 µg/mL,
C#CCn1c(CCCC)nc(Cl)c1C1NC(=O)NC(C)=C1C(=O)OCC (configuration not stated),128 µg/mL,128 µg/mL,32 µg/mL,64 µg/mL,64 µg/mL,64 µg/mL,64 µg/mL,64 µg/mL,64 µg/mL,128 µg/mL,64 µg/mL,
CCCCc1nc(Cl)c(C2NC(=O)NC(C)=C2C(=O)OCC)n1CC (configuration not stated),128 µg/mL,64 µg/mL,64 µg/mL,32 µg/mL,128 µg/mL,64 µg/mL,256 µg/mL,64 µg/mL,64 µg/mL,128 µg/mL,64 µg/mL,
CCCCc1nc(Cl)c(C2NC(=O)NC(C)=C2C(=O)OCC)n1CCN1CCOCC1 (configuration not stated),256 µg/mL,128 µg/mL,64 µg/mL,128 µg/mL,128 µg/mL,256 µg/mL,128 µg/mL,32 µg/mL,128 µg/mL,128 µg/mL,64 µg/mL,
CCCCc1nc(Cl)c(C2NC(=O)NC(C)=C2C(=O)OCC)n1CCC (configuration not stated),64 µg/mL,64 µg/mL,64 µg/mL,32 µg/mL,64 µg/mL,32 µg/mL,128 µg/mL,16 µg/mL,32 µg/mL,64 µg/mL,64 µg/mL,
CCCCc1nc(Cl)c(C2NC(=O)NC(C)=C2C(=O)OCC)n1S(=O)(=O)c1cccc(Br)c1 (configuration not stated),16 µg/mL,32 µg/mL,16 µg/mL,32 µg/mL,32 µg/mL,32 µg/mL,64 µg/mL,32 µg/mL,16 µg/mL,64 µg/mL,32 µg/mL,
CCCCc1nc(Cl)c(C2NC(=O)NC(C)=C2C(=O)OCC)n1S(=O)(=O)c1ccc(C(C)(C)C)cc1 (configuration not stated),64 µg/mL,64 µg/mL,128 µg/mL,64 µg/mL,128 µg/mL,256 µg/mL,64 µg/mL,64 µg/mL,128 µg/mL,32 µg/mL,64 µg/mL,
CCCCc1nc(Cl)c(C2NC(=O)NC(C)=C2C(=O)OCC)n1CC(=O)N1CCOCC1 (configuration not stated),256 µg/mL,128 µg/mL,32 µg/mL,256 µg/mL,128 µg/mL,64 µg/mL,64 µg/mL,64 µg/mL,128 µg/mL,128 µg/mL,64 µg/mL,
CCCCc1nc(Cl)c(C2NC(=O)NC(C)=C2C(=O)OCC)n1Cc1ccc(Cl)c(Cl)c1 (configuration not stated),64 µg/mL,128 µg/mL,64 µg/mL,64 µg/mL,128 µg/mL,128 µg/mL,64 µg/mL,32 µg/mL,64 µg/mL,32 µg/mL,32 µg/mL,
CCCCc1nc(Cl)c(C2NC(=O)NC(CN(c3ccc(OC)nn3)S(=O)(=O)c3ccc(N)cc3)=C2C(=O)OCC)[nH]1 (configuration not stated),16 µg/mL,128 µg/mL,16 µg/mL,64 µg/mL,64 µg/mL,128 µg/mL,64 µg/mL,32 µg/mL,64 µg/mL,64 µg/mL,32 µg/mL,
CCCCc1nc(Cl)c(C2NC(=O)NC(CN(c3nccs3)S(=O)(=O)c3ccc(N)cc3)=C2C(=O)OCC)[nH]1 (configuration not stated),256 µg/mL,256 µg/mL,256 µg/mL,256 µg/mL,256 µg/mL,256 µg/mL,256 µg/mL,256 µg/mL,256 µg/mL,256 µg/mL,128 µg/mL,
CCCCc1nc(Cl)c(C2NC(=O)NC(C)=C2C(=O)OCC)n1Cc1cccc(Cl)c1 (configuration not stated),64 µg/mL,64 µg/mL,32 µg/mL,32 µg/mL,32 µg/mL,128 µg/mL,64 µg/mL,64 µg/mL,64 µg/mL,32 µg/mL,64 µg/mL,
C=CCn1c(CCCC)nc(Cl)c1C1NC(=O)NC(C)=C1C(=O)OCC (configuration not stated),128 µg/mL,64 µg/mL,64 µg/mL,64 µg/mL,64 µg/mL,64 µg/mL,64 µg/mL,32 µg/mL,64 µg/mL,128 µg/mL,64 µg/mL,
Cc1cc(NS(=O)(=O)c2ccc(N)cc2)no1 [SULFAMETHOXAZOLE],32 µg/mL,32 µg/mL,32 µg/mL,8 µg/mL,32 µg/mL,64 µg/mL,16 µg/mL,32 µg/mL,64 µg/mL,128 µg/mL,1 µg/mL,
CCCCc1nc(Cl)c(C2NC(=O)NC(C)=C2C(=O)OCC)n1S(=O)(=O)c1ccccc1 (configuration not stated),64 µg/mL,64 µg/mL,128 µg/mL,128 µg/mL,64 µg/mL,64 µg/mL,256 µg/mL,64 µg/mL,64 µg/mL,128 µg/mL,128 µg/mL,
CCCCc1nc(Cl)c(C2NC(=O)NC(C)=C2C(=O)OCC)n1Cc1ccccc1Cl (configuration not stated),32 µg/mL,32 µg/mL,128 µg/mL,32 µg/mL,32 µg/mL,64 µg/mL,128 µg/mL,32 µg/mL,32 µg/mL,16 µg/mL,16 µg/mL,
CCCCc1nc(Cl)c(C2NC(=O)NC(C)=C2C(=O)OCC)n1CCF (configuration not stated),64 µg/mL,32 µg/mL,128 µg/mL,128 µg/mL,64 µg/mL,64 µg/mL,64 µg/mL,32 µg/mL,64 µg/mL,64 µg/mL,128 µg/mL,
CCCCc1nc(Cl)c(C2NC(=O)NC(C)=C2C(=O)OCC)n1Cc1ccc(Cl)cc1 (configuration not stated),64 µg/mL,64 µg/mL,64 µg/mL,64 µg/mL,32 µg/mL,128 µg/mL,64 µg/mL,64 µg/mL,64 µg/mL,64 µg/mL,64 µg/mL,
